Assay results as given in US12213970B2, “Pyridinyl sulfonamide derivatives, pharmaceutical compositions and uses thereof” (Boehringer Ingelheim International GmbH, priority 2018, dated 2025).
Counter-ions that a name gives are not always drawn. Like-named read-outs stand apart in the source and are kept apart here.

Columns and labels:
AOC2 = biological target: T1, AOC2 (Homo sapiens, UniProt O75106); test: AOC2 biochemical assay (Amplex Red)
T1 construct: host or cells: HEK293 cells (transient transfection), cell homogenate
T1 sequence (O75106 1-756): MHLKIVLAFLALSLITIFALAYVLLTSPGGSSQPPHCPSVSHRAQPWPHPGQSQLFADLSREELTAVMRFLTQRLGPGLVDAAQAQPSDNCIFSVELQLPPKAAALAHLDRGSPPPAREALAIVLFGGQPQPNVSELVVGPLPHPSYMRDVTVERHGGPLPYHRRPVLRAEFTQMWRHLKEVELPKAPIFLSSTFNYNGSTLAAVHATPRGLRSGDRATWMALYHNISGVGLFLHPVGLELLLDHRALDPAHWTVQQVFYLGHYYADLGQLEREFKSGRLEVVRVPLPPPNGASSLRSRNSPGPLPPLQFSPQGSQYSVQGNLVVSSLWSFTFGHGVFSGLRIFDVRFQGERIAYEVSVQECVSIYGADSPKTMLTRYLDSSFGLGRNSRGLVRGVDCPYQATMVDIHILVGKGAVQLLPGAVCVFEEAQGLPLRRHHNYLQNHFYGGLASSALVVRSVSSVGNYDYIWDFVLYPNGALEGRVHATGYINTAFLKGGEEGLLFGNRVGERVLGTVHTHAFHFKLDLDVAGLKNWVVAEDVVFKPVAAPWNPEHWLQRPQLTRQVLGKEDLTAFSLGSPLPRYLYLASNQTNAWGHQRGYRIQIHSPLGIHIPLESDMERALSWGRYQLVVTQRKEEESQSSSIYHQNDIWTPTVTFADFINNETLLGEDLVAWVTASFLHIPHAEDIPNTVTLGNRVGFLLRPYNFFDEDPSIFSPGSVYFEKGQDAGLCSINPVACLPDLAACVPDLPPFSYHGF
Procedure: The Amplex® Red Assay (commercially available from Thermo Fisher Scientific) provides a sensitive method for the detection of H2O2 generated during enzymatic reactions like the amine oxidation catalyzed by AOC2. […] An aliquot of 5 μL of the compound dilution is added to a 96 well plate (flat bottom F, black, GREINER bio-one, #655900) in a DMSO concentration of 2%. […] Cells are cultured for 3 days in EMEM culture medium containing 10% FCS (#04-00-1A, Biological Industries). After washing twice with ice cold PBS, cells are lysed by mechanic homogenation and cleared supernatants are shock frozen in liquid nitrogen and stored at -80° C. For the determination of AOC2 enzymatic activity cell lysates are thawed on ice and 1:1 diluted with reaction buffer. An Aliquot of 45 μL is added to the compound dilution and incubated for 30 min at 37° C. The enzymatic reaction is started with the addition of 50 μL of Amplex® Red reaction mix (final assay concentration: 100 mM sodiumphosphate, 120 μM Amplex® Red reagent (#A22177 Molecular Probes), 1.5 U/mL Horseradish Peroxidase (#P8375 Sigma-Aldrich), 2 mM phenylethylamine (#[…] Sigma-Aldrich), 0.05% Pluronic F-127 (#P3000MP Sigma-Aldrich), pH 7.4, 37° C.). The turnover per time of the substrate is determined directly with a fluorescence reader (Ex 540 nm/Em 590 nm) like Envision 2104 Multilabel Reader (PERKIN ELMER) for 60 min. (cf. Anal Biochem (1997) 253:169-174; Anal Biochem (1997) 253:162-168)

MAO-A = biological target: T2, MAO-A (Homo sapiens, UniProt P21397); test: MAO-A biochemical assay (MAO-Glo)
T2 construct: purchased Sigma-Aldrich M7316
T2 sequence (P21397 1-527): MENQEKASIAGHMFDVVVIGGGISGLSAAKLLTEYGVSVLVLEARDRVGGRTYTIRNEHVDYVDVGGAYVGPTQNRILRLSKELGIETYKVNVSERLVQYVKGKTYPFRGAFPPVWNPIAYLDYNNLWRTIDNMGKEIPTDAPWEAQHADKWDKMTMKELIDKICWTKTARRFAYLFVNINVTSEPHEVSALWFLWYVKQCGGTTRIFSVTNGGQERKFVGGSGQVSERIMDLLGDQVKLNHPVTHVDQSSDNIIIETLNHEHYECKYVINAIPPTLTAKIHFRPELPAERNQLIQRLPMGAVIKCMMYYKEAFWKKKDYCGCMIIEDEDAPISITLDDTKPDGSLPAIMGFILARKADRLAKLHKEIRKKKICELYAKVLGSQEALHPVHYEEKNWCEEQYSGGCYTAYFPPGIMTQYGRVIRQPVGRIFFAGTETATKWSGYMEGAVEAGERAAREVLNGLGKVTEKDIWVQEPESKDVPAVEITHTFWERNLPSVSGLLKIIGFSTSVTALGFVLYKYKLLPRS
Text: The MAO-Glo™ Assay (commercially available from PROMEGA, #V1402) provides a sensitive method for the measurement of monoamine oxidase (MAO) activity (Valley, M. P. et al., 2006, Anal. Biochem. 359: 238-246) from a variety of tissues, biofluids or recombinant expressed or purified enzymes. As substrate a derivate of the beetle luciferin ((4S)-4,5-dihydro-2-(6-hydroxybenzothiazolyl)-4-thiazole-carboxylic acid) is used, which is oxidized at a primary amine moiety. After a spontaneous elimination and a catalyzed esterase reaction, the turnover of luciferin by the luciferase is recorded as a signal of MAO-A activity.
An aliquot of 3 μL of the compound dilution is added to a 384 well plate (Optiplate, PS, flat bottom F, black, PERKIN ELMER, #6007270) in a DMSO concentration of 1.025%.
A MAO-A enzyme aliquot (M7316, Sigma-Aldrich) is thawed on ice, diluted in reaction buffer to 1.25 mU/μL and added in a volume of 5 μL to the wells. After incubation for 20 minutes at 37° C., 2 μL of MAO substrate (dissolved in DMSO at 16 mM, diluted to 20 μM in assay buffer to obtain a final assay concentration of 4 μM) is added, mixed, and the mixture further incubated for 60 minutes at 37° C.
The turnover of the substrate is determined by the addition of 10 μL of the Detection Reagent mix which was generated by the addition of reconstitution buffer with esterase (PROMEGA, #V1402) to the luciferin detection reagent (PROMEGA, #V1402). After an incubation period of 20 minutes at 37° C., the luminescent signal is measured with a […], e.g. Envision 2104 Multilabel Reader (PERKIN ELMER).

[1] = comparison table, read-out: IC50 MAO-A

Compound | IC50 (AOC2; read-out: AOC2 IC50) [µM] | IC50 (MAO-A; IC50, read-out: MAO-A) [nM] | also measured
CN(C)S(=O)(=O)c1ccc(OC/C(=C\F)CN)cc1 [Compound 10 of WO 2013/163675, reference compound] | – | – | ratio IC50 AOC2/IC50 AOC3 (fold less active against AOC2 as compared to AOC3) (AOC2; AOC2 versus AOC3): ca. 270 fold; IC50 (AOC2; read-out: IC50 AOC2): 0.538 µM; IC50 (MAO-A; read-out: IC50 MAO-A): 7410 nM
CC(C)(O)CNC(=O)[C@H]1CCN(S(=O)(=O)c2ccc(OC/C(=C\F)CN)nc2)C1 [Example 2] | 0.272 | > 50000 | –
CNC(=O)[C@@H]1[C@@H]2CN(S(=O)(=O)c3ccc(OC/C(=C\F)CN)nc3)C[C@@H]21 [Example 5] | 0.345 | > 50000 | –
CNC(=O)[C@@H]1CCCN1S(=O)(=O)c1ccc(OC/C(=C\F)CN)nc1 [Example 8] | 0.257 | > 50000 | –
NC/C(=C/F)COc1ccc(S(=O)(=O)N2CCC[C@H]2C(N)=O)cn1 [Example 13] | 0.205 | > 50000 | –
CC1(O)CN(S(=O)(=O)c2ccc(OC/C(=C\F)CN)nc2)C1 [Example 16] | 0.189 | 12800 | –
NC/C(=C/F)COc1ccc(S(=O)(=O)N2CCC[C@@H]2C(N)=O)cn1 [Example 18] | 0.176 | > 50000 | –
NC/C(=C/F)COc1ccc(S(=O)(=O)N2CC(C(N)=O)C2)cn1 [Example 20] | 0.119 | > 50000 | –
NC/C(=C/F)COc1ccc(S(=O)(=O)N2C[C@H]3C[C@@]3(C(=O)N3CCOCC3)C2)cn1 [Example 22] | 0.093 | > 50000 | –
CCNC(=O)C1(C)CCN(S(=O)(=O)c2ccc(OC/C(=C\F)CN)nc2)CC1 [Example 23] | 0.079 | > 50000 | –
CN(C)C(=O)C1CN(S(=O)(=O)c2ccc(OC/C(=C\F)CN)nc2)C1 [Example 25] | 0.068 | > 50000 | –
NC/C(=C/F)COc1ccc(S(=O)(=O)N2CC(C3CCN(C(=O)C4CC4)CC3)C2)cn1 [Example 26] | 0.063 | > 50000 | –
CNC(=O)[C@H]1[C@@H]2CN(S(=O)(=O)c3ccc(OC/C(=C\F)CN)nc3)C[C@@H]21 [Example 27] | 0.062 | > 50000 | –
CNC(=O)[C@@]12C[C@@H]1CN(S(=O)(=O)c1ccc(OC/C(=C\F)CN)nc1)C2 [Example 29] | 0.058 | > 50000 | –
CC1(C(=O)NCCF)CCN(S(=O)(=O)c2ccc(OC/C(=C\F)CN)nc2)CC1 [Example 53] | – | > 50000 | –
NC/C(=C/F)COc1ccc(S(=O)(=O)N2CC[C@H](O)C2)cc1 [Reference compound B, reference compound] | – | – | IC50 (MAO-A; [1]): 7250 nM
NC/C(=C/F)COc1cnc(N2CCC(O)CC2)nc1 [reference compound] | – | – | IC50 (MAO-A; [1]): 54900 nM

Now from value to molecule, other results behind:

IC50 (AOC2; read-out: AOC2 IC50) [µM] | IC50 (MAO-A; IC50, read-out: MAO-A) [nM] | Compound | also measured
0.12 | > 50000 | CN1CCN(C2CCN(S(=O)(=O)c3ccc(OC/C(=C\F)CN)nc3)CC2)C1=O [Example 1, 1-{1-[6-((Z)-2-Aminomethyl-3-fluoro-allyloxy)-pyridine-3-sulfonyl]-piperidine-4-yl}-3-methyl-imidazolidin-2-one trifluoroacetate] | –
– | > 50000 | NC/C(=C/F)COc1ccc(S(=O)(=O)N2CCC(C(=O)N3CCOCC3)CC2)cn1 [Example 3] | IC50 (AOC2; value in μM, read-out: AOC2 IC50): 23.4 µM
0.394 | > 50000 | CN(C)C(=O)[C@H]1CCN(S(=O)(=O)c2ccc(OC/C(=C\F)CN)nc2)C1 [Example 4] | –
0.285 | > 50000 | CC(=O)N[C@H]1CCCN(S(=O)(=O)c2ccc(OC/C(=C\F)CN)nc2)C1 [Example 6] | –
0.272 | > 50000 | NC/C(=C/F)COc1ccc(S(=O)(=O)N2CCC(C(N)=O)CC2)cn1 [Example 7] | –
0.222 | > 50000 | CC(=O)N1CC(C2CCN(S(=O)(=O)c3ccc(OC/C(=C\F)CN)nc3)CC2)C1 [Example 9] | –
0.214 | > 50000 | NC/C(=C/F)COc1ccc(S(=O)(=O)N2CCC(C(=O)N3CCC3)CC2)cn1 [Example 10] | –
0.21 | > 50000 | CNC(=O)[C@H]1CCN(S(=O)(=O)c2ccc(OC/C(=C\F)CN)nc2)C1 [Example 11] | –
0.209 | > 50000 | CC(=O)NC1CCN(S(=O)(=O)c2ccc(OC/C(=C\F)CN)nc2)C1 (stereo not drawn) [Example 12] | –
0.203 | > 50000 | CNC(=O)[C@@H]1CCN(S(=O)(=O)c2ccc(OC/C(=C\F)CN)nc2)C1 [Example 14] | –
0.202 | > 50000 | CCNC(=O)C1CCN(S(=O)(=O)c2ccc(OC/C(=C\F)CN)nc2)CC1 [Example 15] | –
0.189 | > 50000 | CN(C)C(=O)C1CCN(S(=O)(=O)c2ccc(OC/C(=C\F)CN)nc2)CC1 [Example 17] | –
0.13 | > 50000 | CN(C)C(=O)CC1CCN(S(=O)(=O)c2ccc(OC/C(=C\F)CN)nc2)CC1 [Example 19] | –
0.101 | > 50000 | NC/C(=C/F)COc1ccc(S(=O)(=O)N2CC[C@H](C(=O)N3CCOCC3)C2)cn1 [Example 21] | –
0.072 | > 50000 | CC(=O)N[C@@H]1CCCN(S(=O)(=O)c2ccc(OC/C(=C\F)CN)nc2)C1 [Example 24] | –
0.059 | > 50000 | CC(=O)NCC1CCN(S(=O)(=O)c2ccc(OC/C(=C\F)CN)nc2)CC1 [Example 28] | –
– | 20100 | CC(F)(F)CNC(=O)CC1CCN(S(=O)(=O)c2ccc(OC/C(=C\F)CN)nc2)CC1 [Example 51] | –
– | 25900 | NC/C(=C/F)COc1ccc(S(=O)(=O)N2CCC(CC(=O)NCCO)CC2)cn1 [Example 52] | –
– | 26900 | COCCNC(=O)CC1CCN(S(=O)(=O)c2ccc(OC/C(=C\F)CN)nc2)CC1 [Example 54] | –
– | > 50000 | NC/C(=C/F)COc1ccc(S(=O)(=O)N2CCC(CC(=O)N3CC(O)C3)CC2)cn1 [Example 55] | –
– | > 50000 | CC1(C(=O)NC2CC2)CCN(S(=O)(=O)c2ccc(OC/C(=C\F)CN)nc2)CC1 [Example 56] | –
